Results: ChEMBL document CHEMBL5131517 (ACS Med Chem Lett, 2022)

Experiments:
[1] = target: T1, 5-hydroxytryptamine receptor 2A (Homo sapiens, UniProt P28223); assay: Agonist activity at human 5HT2A receptor stably expressed in Flp-In-T-REx-293 cells assessed as increase in Gq-mediated calcium flux by Fluo-4 direct dye based FLIPR Tetra assay; assay type: functional, cell-based
[2] = target: T2, 5-hydroxytryptamine receptor 2C (Homo sapiens, UniProt P28335); assay: Agonist activity at human 5HT2C receptor stably expressed in Flp-In-T-REx-293 cells assessed as increase in Gq-mediated calcium flux by Fluo-4 direct dye based FLIPR Tetra assay; assay type: functional, cell-based
T2 sequence (P28335 whole entry): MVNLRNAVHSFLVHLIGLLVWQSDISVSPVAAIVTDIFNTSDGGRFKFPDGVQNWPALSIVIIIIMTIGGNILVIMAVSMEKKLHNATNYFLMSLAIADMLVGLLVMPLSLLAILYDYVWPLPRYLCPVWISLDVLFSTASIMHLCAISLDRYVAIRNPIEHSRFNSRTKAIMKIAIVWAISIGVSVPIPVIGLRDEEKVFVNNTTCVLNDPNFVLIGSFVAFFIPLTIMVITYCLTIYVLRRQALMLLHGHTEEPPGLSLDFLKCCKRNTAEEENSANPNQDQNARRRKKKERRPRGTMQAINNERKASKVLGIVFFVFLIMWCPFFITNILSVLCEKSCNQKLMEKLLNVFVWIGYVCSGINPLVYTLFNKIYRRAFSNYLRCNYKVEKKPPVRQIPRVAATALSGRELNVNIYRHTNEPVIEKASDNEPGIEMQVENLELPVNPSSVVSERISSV

[3] = target: T3, 5-hydroxytryptamine receptor 2C (Homo sapiens) (UniProt P28335); assay: Agonist activity at human 5HT2C receptor stably expressed in Flp-In-T-REx-293 cells assessed as maximal Gq-mediated calcium flux by Fluo-4 direct dye based FLIPR Tetra assay relative to control; assay type: functional, cell-based
T3 sequence (whole entry): T2 sequence (P28335 whole entry)

[4] = target: T4, 5-hydroxytryptamine receptor 2B (Homo sapiens, UniProt P41595); assay: Agonist activity at human 5HT2B receptor stably expressed in Flp-In-T-REx-293 cells assessed as increase in Gq-mediated calcium flux by Fluo-4 direct dye based FLIPR Tetra assay; assay type: functional, cell-based; conditions: read-out: EC50
T4 sequence (P41595 whole entry): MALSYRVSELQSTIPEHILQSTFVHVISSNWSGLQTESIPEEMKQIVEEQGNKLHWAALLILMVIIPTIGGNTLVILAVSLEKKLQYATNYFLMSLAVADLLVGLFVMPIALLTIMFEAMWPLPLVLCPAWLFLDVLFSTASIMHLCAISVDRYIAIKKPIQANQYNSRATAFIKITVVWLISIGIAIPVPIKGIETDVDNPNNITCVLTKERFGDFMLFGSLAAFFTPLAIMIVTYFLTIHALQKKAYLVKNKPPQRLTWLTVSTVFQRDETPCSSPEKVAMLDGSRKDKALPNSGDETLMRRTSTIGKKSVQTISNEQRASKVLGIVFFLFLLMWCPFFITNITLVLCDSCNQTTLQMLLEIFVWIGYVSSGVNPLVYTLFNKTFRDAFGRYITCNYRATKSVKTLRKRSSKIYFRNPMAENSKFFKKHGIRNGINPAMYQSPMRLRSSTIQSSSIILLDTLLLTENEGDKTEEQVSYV

[5] = target: T4, 5-hydroxytryptamine receptor 2B; assay: Agonist activity at human 5HT2B receptor stably expressed in Flp-In-T-REx-293 cells assessed as maximal Gq-mediated calcium flux by Fluo-4 direct dye based FLIPR Tetra assay relative to control; assay type: functional, cell-based
[6] = target: T1, 5-hydroxytryptamine receptor 2A; assay: Agonist activity at human 5HT2A receptor stably expressed in Flp-In-T-REx-293 cells assessed as maximal Gq-mediated calcium flux by Fluo-4 direct dye based FLIPR Tetra assay relative to control; assay type: functional, cell-based
[7] = Drug metabolism in BALB/c mouse liver microsome S9 fraction assessed as [M+16] metabolite formation prewarmed for 5 mins followed by NADPH addition measured over 1 hrs by LCMS analysis; assay type: ADME; conditions: microsomes, 1.083 h, time 65 min

T1 sequence (P28223 whole entry): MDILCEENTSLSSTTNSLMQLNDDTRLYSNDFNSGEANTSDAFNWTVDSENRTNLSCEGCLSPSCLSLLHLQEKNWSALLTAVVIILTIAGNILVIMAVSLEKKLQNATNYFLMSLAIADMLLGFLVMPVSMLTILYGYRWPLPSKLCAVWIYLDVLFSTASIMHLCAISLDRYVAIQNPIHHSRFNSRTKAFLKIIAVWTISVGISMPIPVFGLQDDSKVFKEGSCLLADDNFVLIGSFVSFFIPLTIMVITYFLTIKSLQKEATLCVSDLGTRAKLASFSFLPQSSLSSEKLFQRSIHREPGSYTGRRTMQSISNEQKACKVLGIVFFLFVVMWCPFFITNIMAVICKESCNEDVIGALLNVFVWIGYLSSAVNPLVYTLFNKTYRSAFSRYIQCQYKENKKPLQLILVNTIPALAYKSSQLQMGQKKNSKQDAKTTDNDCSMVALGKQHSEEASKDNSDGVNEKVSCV

| Compound | EC50 [1] | EC50 ([2]; read-out: EC50) | Emax ([3]; filed as agonist) | EC50 [4] | Emax ([5]; filed as agonist) | Emax ([6]; filed as agonist) | Drug metabolism [7] | Emax [6] | Emax [5] | EC50 ([2]; read-out: pEC50 (converted)) | Emax [3] |
| --- | --- | --- | --- | --- | --- | --- | --- | --- | --- | --- | --- |
| Oc1cc(Cl)ccc1C1NCCc2c1[nH]c1ccc(Cl)cc21 (centres undefined) | 52 nM | 47 nM | 102% | 25 nM | 109% | 98.5% |  |  |  |  |  |
| Oc1cc(Br)ccc1C1NCCc2c1[nH]c1ccc(Cl)cc21 (centres undefined) | 537 nM | 794 nM | 107% | 204 nM | 106% | 94.5% |  |  |  |  |  |
| RAUWOLFIA SERPENTINA |  |  |  |  |  |  | Metabolite_Detected |  |  |  |  |
| Oc1c(Cl)cccc1C1NCCc2c1[nH]c1ccc(Cl)cc21 (centres undefined) | 336 nM | 176 nM | 94% | 106 nM | 95.9% | 70.1% |  |  |  |  |  |
| COc1ccc(OC)c(C2NCCc3c2[nH]c2ccc(Cl)cc32)c1 (centres undefined) | 1820 nM | 2690 nM | 42.4% | 416 nM |  |  |  | 14.4% | 32% |  |  |
| Oc1ccc(Br)cc1C1NCCc2c1[nH]c1ccc(F)cc21 (centres undefined) | 1110 nM | 376 nM | 101% | 338 nM | 111% | 80.8% |  |  |  |  |  |
| Oc1c(Cl)cccc1C1NCCc2c1[nH]c1ccc(F)cc21 (centres undefined) | 273 nM | 78 nM | 99.2% | 88 nM | 96.2% | 65.3% |  |  |  |  |  |
| Oc1ccccc1C1NCCc2c1[nH]c1ccc(F)cc21 (centres undefined) | 26 nM | 4.3 nM | 100% |  |  | 96.2% |  |  |  |  |  |
| Clc1ccc2[nH]c3c(c2c1)CCNC3C1CCCCC1 (centres undefined) | 295 nM | 95.5 nM | 98.5% |  |  | 59.9% |  |  |  |  |  |
| Cn1ccnc1C1NCCc2c1[nH]c1ccc(O)cc21 (centres undefined) | 79 nM | 97 nM | 87.1% |  |  | 100% |  |  |  |  |  |
| Fc1ccc2[nH]c3c(c2c1)CCNC3c1cccnc1F (centres undefined) | 390 nM | 4030 nM |  |  |  | 40.9% |  |  |  |  | 30.2% |
| Oc1cc(Cl)ccc1C1NCCc2c1[nH]c1ccc(F)cc21 (centres undefined) | 229 nM | 209 nM | 107% | 128 nM | 105% | 73.2% |  |  |  |  |  |
| COc1ccc(C2NCCc3c2[nH]c2ccc(F)cc32)cc1OC (centres undefined) | 254 nM | 152 nM | 103% | 102 nM | 89.8% | 83.2% |  |  |  |  |  |
| Clc1ccc2[nH]c3c(c2c1)CCNC3c1cncnc1 (centres undefined) | 898 nM | 420 nM |  |  |  |  |  | 32.1% |  |  | 38.7% |
| Cc1ccc(O)c(C2NCCc3c2[nH]c2ccc(F)cc32)c1 (centres undefined) | 1230 nM | 446 nM | 99.2% | 316 nM | 115% |  |  | 36.8% |  |  |  |
| CCC1NCCc2c1[nH]c1ccc(F)cc21 (centres undefined) | 597 nM | 200 nM | 96.2% |  |  | 75.4% |  |  |  |  |  |
| CCC1NCCc2c1[nH]c1ccc(O)cc21 (centres undefined) | 195 nM | 61 nM | 97.6% |  |  | 85.1% |  |  |  |  |  |

Now from value to compound, other results behind:

| EC50 [1] | EC50 ([2]; read-out: EC50) | Emax ([3]; filed as agonist) | EC50 [4] | Emax ([5]; filed as agonist) | Emax ([6]; filed as agonist) | Drug metabolism [7] | Emax [6] | Emax [5] | EC50 ([2]; read-out: pEC50 (converted)) | Compound | Emax [3] |
| --- | --- | --- | --- | --- | --- | --- | --- | --- | --- | --- | --- |
| > 10000 nM | 1600 nM | 55.3% | 588 nM | 52.1% |  |  |  |  |  | COc1ccc(OC)c(C2NCCc3c2[nH]c2ccc(F)cc32)c1 (centres undefined) |  |
| > 10000 nM | 3560 nM | 58.9% | 2000 nM | 111% |  |  |  |  |  | Oc1ccc(Cl)cc1C1NCCc2c1[nH]c1ccc(Cl)cc21 (centres undefined) |  |
| 81 nM | 123 nM | 99.3% | 34 nM | 102% | 96% |  |  |  |  | COc1ccc(C2NCCc3c2[nH]c2ccc(Cl)cc32)cc1OC (centres undefined) |  |
| 167 nM | 159 nM | 100% | 98 nM | 91.3% | 45.6% |  |  |  |  | COc1ccc(C2NCCc3c2[nH]c2ccc(F)cc32)c(OC)c1 (centres undefined) |  |
| 562 nM | 407 nM | 99.2% | 977 nM | 89.4% | 69.8% |  |  |  |  | Cc1ccc(C2NCCc3c2[nH]c2ccc(Cl)cc32)c(C)c1 (centres undefined) |  |
| 147 nM | 95 nM | 111% | 59 nM | 112% | 98% |  |  |  |  | Oc1cc(Br)ccc1C1NCCc2c1[nH]c1ccc(F)cc21 (centres undefined) |  |
| 72 nM | 42 nM | 120% | 25 nM | 102% | 95.2% |  |  |  |  | Oc1ccc(O)c(C2NCCc3c2[nH]c2ccc(F)cc32)c1 (centres undefined) |  |
| 812 nM | 467 nM | 91.3% |  |  |  |  | 31.7% |  |  | Fc1ccc2[nH]c3c(c2c1)CCNC3CCc1ccccc1 (centres undefined) |  |
| 1350 nM | 3240 nM | 106% |  |  | 88.1% |  |  |  | 0.324 nM | Clc1ccc2[nH]c3c(c2c1)CCNC3C(c1ccccc1)c1ccccc1 (centres undefined) |  |
| 776 nM | 173 nM | 118% |  |  | 97.1% |  |  |  |  | Cc1cc(C2NCCc3c2[nH]c2ccc(Cl)cc32)sc1Br (centres undefined) |  |
| 120 nM | 76.4 nM | 100% |  |  | 100% |  |  |  |  | Oc1ccc2[nH]c3c(c2c1)CCNC3c1ccccc1C(F)(F)F (centres undefined) |  |
| 363 nM | 159 nM | 104% | 537 nM | 107% | 47.8% |  |  |  |  | Cc1ccc(C2NCCc3c2[nH]c2ccc(F)cc32)c(C)c1 (centres undefined) |  |
|  |  |  | 4270 nM | 106% |  |  |  |  |  | Cc1ccc(O)c(C2NCCc3c2[nH]c2ccc(Cl)cc32)c1 (centres undefined) |  |
| 1910 nM | 954 nM | 103% |  |  | 92.5% |  |  |  |  | Fc1ccc2[nH]c3c(c2c1)CCNC3C(c1ccccc1)c1ccccc1 (centres undefined) |  |
| 812 nM | 1320 nM | 95.2% | 457 nM | 111% | 79.7% |  |  |  |  | Oc1ccc(Br)cc1C1NCCc2c1[nH]c1ccc(Cl)cc21 (centres undefined) |  |
| 91.2 nM | 20.4 nM | 103% |  |  | 87.3% |  |  |  |  | Fc1ccc2[nH]c3c(c2c1)CCNC3C1CCCCC1 (centres undefined) |  |
| 239 nM | 50.1 nM | 111% |  |  | 90.7% |  |  |  |  | Cc1noc(C)c1C1NCCc2c1[nH]c1ccc(F)cc21 (centres undefined) |  |
| 3300 nM | 688 nM | 67.4% |  |  | 49.1% |  |  |  |  | Oc1cccc(C2NCCc3c2[nH]c2ccc(Cl)cc32)c1 (centres undefined) |  |
| 58.2 nM | 29.8 nM | 104% |  |  | 99.9% |  |  |  | 30.2 nM | Oc1ccc(C2NCCc3c2[nH]c2ccc(F)cc32)cc1 (centres undefined) |  |
| 74.5 nM | 68.6 nM | 107% |  |  | 97.9% |  |  |  |  | Oc1c(Br)cccc1C1NCCc2c1[nH]c1ccc(Cl)cc21 (centres undefined) |  |
